This is an account of results in ChEMBL document CHEMBL4130424, “Synthesis and biological effect of chrom-4-one derivatives as functional inhibitors of heat shock protein 27” (2017).

Each structure is given as a SMILES string. Active and inactive are the calls of the source. The calls are words filed in the database; no cut-off is given here.

The target of test [1] is Heat shock protein beta-1 (Homo sapiens) (UniProt P04792). Kind of test: Induction of abnormal recombinant HSP27 (unknown origin) dimerization after 3 hrs by Western blot analysis. (In western blotting, separated proteins are transferred to a membrane and probed.)
The target is the same in test [2]. Kind of test: Induction of abnormal HSP27 dimerization in human NCI-H460 cells at 10 uM co-treated with 17-AAG after 24 hrs by Western blot analysis. The format is cell-based.
Test [3] shares this target. Kind of test: Induction of abnormal HSP27 dimerization in human NCI-H460 cells at 10 uM after 12 hrs by Western blot analysis. It is filed as cell-based.
Test [4] deals with NCI-H460. Kind of test: Induction of apoptosis in human NCI-H460 cells assessed as increase in cleaved PARP levels at 10 uM after 12 hrs by Western blot analysis. It is filed as functional, cell-based.
For test [5], the system named is NCI-H460. As to the kind of experiment: Induction of apoptosis in human NCI-H460 cells assessed as increase in cleaved caspase-7 levels at 10 uM after 12 hrs by Western blot analysis. It is filed as functional, cell-based.
In test [6] the test system is NCI-H460. Kind of test: Potentiation of 17-AAG-induced antiproliferative activity against human NCI-H460 cells at 10 uM after 24 hrs by EZ-CYTOX cell viability assay. It is filed as functional, cell-based.
Test [7] deals with Heat shock protein beta-1 (Homo sapiens) (UniProt P04792). As to the kind of experiment: Induction of abnormal HSP27 dimerization in human NCI-H460 cells assessed as potentiation of 17-AAG-induced increase in cleaved PARP levels at 10 uM after 24 hrs by Western blot analysis. It is filed as cell-based.
Test [8] shares this target. As to the kind of experiment: Induction of abnormal HSP27 dimerization in human NCI-H460 cells assessed as potentiation of 17-AAG-induced increase in cleaved caspase-7 levels at 10 uM after 24 hrs by Western blot analysis. The format is cell-based.
In test [9] the test system is NCI-H460. Kind of test: Induction of apoptosis in human NCI-H460 cells assessed as necrotic cells at 10 uM after 24 hrs by Annexin V/propidium iodide double staining-based FACS analysis (reference value: 1.29%). The format is functional. (In flow cytometry, cells or beads pass a laser one at a time.)
Test [10] deals with NCI-H460. Kind of test: Induction of apoptosis in human NCI-H460 cells assessed as late apoptotic cells at 10 uM after 24 hrs by Annexin V/propidium iodide double staining-based FACS analysis (reference value: 3.66%). The format is functional.
The subject of test [11] is NCI-H460. As to the kind of experiment: Induction of apoptosis in human NCI-H460 cells assessed as early apoptotic cells at 10 uM after 24 hrs by Annexin V/propidium iodide double staining-based FACS analysis (reference value: 3.84%). The format is functional.
In test [12] the test system is NCI-H460. Kind of test: Potentiation of 17-AAG-induced apoptosis in human NCI-H460 cells assessed as late apoptotic cells at 10 uM after 24 hrs by Annexin V/propidium iodide double staining-based FACS analysis (reference value: 7.53%). The format is functional.
Test [13] concerns NCI-H460. Kind of test: Potentiation of 17-AAG-induced apoptosis in human NCI-H460 cells assessed as early apoptotic cells at 10 uM after 24 hrs by Annexin V/propidium iodide double staining-based FACS analysis (reference value: 17.86%). It is filed as functional.
Test [14] deals with NCI-H460. As to the kind of experiment: Potentiation of 17-AAG-induced apoptosis in human NCI-H460 cells assessed as necrotic cells at 10 uM after 24 hrs by Annexin V/propidium iodide double staining-based FACS analysis (reference value: 1.42%). The format is functional.
For test [15], the system named is NCI-H460. Kind of test: Potentiation of 17-AAG-induced antiproliferative activity in HSP27-knockdown human NCI-H460 cells at 10 uM after 24 hrs by EZ-CYTOX cell viability assay. The format is functional, cell-based.
Test [16] deals with NCI-H460. As to the kind of experiment: Induction of apoptosis in human NCI-H460 cells assessed as late apoptotic cells at 10 uM after 24 hrs by Annexin V/propidium iodide double staining-based FACS analysis (reference value: 3.92%). It is filed as functional.
For test [17], the system named is NCI-H460. Kind of test: Induction of apoptosis in human NCI-H460 cells assessed as early apoptotic cells at 10 uM after 24 hrs by Annexin V/propidium iodide double staining-based FACS analysis (reference value: 2.83%). It is filed as functional.
Test [18] has as its system NCI-H460. Kind of test: Induction of apoptosis in human NCI-H460 cells assessed as necrotic cells at 10 uM after 24 hrs by Annexin V/propidium iodide double staining-based FACS analysis (reference value: 2.92%). It is filed as functional.
The test system of test [19] is NCI-H460. Kind of test: Potentiation of cisplatin-induced apoptosis in human NCI-H460 cells assessed as late apoptotic cells at 10 uM after 24 hrs by Annexin V/propidium iodide double staining-based FACS analysis (reference value: 3.74%). It is filed as functional.
The test system of test [20] is NCI-H460. Kind of test: Potentiation of cisplatin-induced apoptosis in human NCI-H460 cells assessed as early apoptotic cells at 10 uM after 24 hrs by Annexin V/propidium iodide double staining-based FACS analysis (reference value: 7.49%). The format is functional.
In test [21] the test system is NCI-H460. As to the kind of experiment: Potentiation of cisplatin-induced apoptosis in human NCI-H460 cells assessed as necrotic cells at 10 uM after 24 hrs by Annexin V/propidium iodide double staining-based FACS analysis (reference value: 2.26%). It is filed as functional.
In test [22] the target is Heat shock protein beta-1 (Homo sapiens) (UniProt P04792). As to the kind of experiment: Induction of abnormal HSP27 dimerization in human NCI-H460 cells assessed as potentiation of 17-AAG-induced antiproliferative activity at 10 uM after 24 hrs by EZ-CYTOX cell viability assay. It is filed as cell-based.
For test [23] the target is unchanged. As to the kind of experiment: Induction of abnormal HSP27 dimerization in human NCI-H460 cells assessed as potentiation of 17-AAG-induced apoptosis by measuring late apoptotic cells at 10 uM after 24 hrs by Annexin V/propidium iodide double staining-based FACS analysis (reference value: 7.53%). The format is cell-based.
For test [24] the target is unchanged. Kind of test: Induction of abnormal HSP27 dimerization in human NCI-H460 cells assessed as potentiation of cisplatin-induced antiproliferative activity at 10 uM after 24 hrs by EZ-CYTOX cell viability assay. The format is cell-based.
For test [25] the target is unchanged. As to the kind of experiment: Induction of abnormal HSP27 dimerization in human NCI-H460 cells assessed as potentiation of cisplatin-induced increase in cleaved PARP levels at 10 uM after 24 hrs by Western blot analysis. It is filed as cell-based.
Test [26] has the same target. As to the kind of experiment: Induction of abnormal HSP27 dimerization in human NCI-H460 cells assessed as potentiation of cisplatin-induced increase in cleaved caspase-7 levels at 10 uM after 24 hrs by Western blot analysis. The format is cell-based.
Test [27] shares this target. As to the kind of experiment: Induction of abnormal HSP27 dimerization in human NCI-H460 cells assessed as potentiation of cisplatin-induced apoptosis by measuring late apoptotic cells at 10 uM after 24 hrs by Annexin V/propidium iodide double staining-based FACS analysis (reference value: 3.74%). It is filed as cell-based.
Test [28] has the same target. As to the kind of experiment: Induction of abnormal HSP27 dimerization in human NCI-H460 cells assessed as potentiation of cisplatin-induced apoptosis by measuring early apoptotic cells at 10 uM after 24 hrs by Annexin V/propidium iodide double staining-based FACS analysis (reference value: 7.49%). It is filed as cell-based.
For test [29] the target is unchanged. Kind of test: Induction of abnormal HSP27 dimerization in human NCI-H460 cells assessed as potentiation of cisplatin-induced apoptosis by measuring necrotic cells at 10 uM after 24 hrs by Annexin V/propidium iodide double staining-based FACS analysis (reference value: 2.26%). The format is cell-based.
Test [30] has the same target. As to the kind of experiment: Induction of abnormal HSP27 dimerization in human NCI-H460 cells assessed as potentiation of 17-AAG-induced apoptosis by measuring early apoptotic cells at 10 uM after 24 hrs by Annexin V/propidium iodide double staining-based FACS analysis (reference value: 17.86%). It is filed as cell-based.
Test [31] has the same target. Kind of test: Induction of abnormal HSP27 dimerization in human NCI-H460 cells assessed as potentiation of 17-AAG-induced apoptosis by measuring necrotic cells at 10 uM after 24 hrs by Annexin V/propidium iodide double staining-based FACS analysis (reference value: 1.42%). It is filed as cell-based.

Sequence of Heat shock protein beta-1 (Homo sapiens) (P04792 whole entry): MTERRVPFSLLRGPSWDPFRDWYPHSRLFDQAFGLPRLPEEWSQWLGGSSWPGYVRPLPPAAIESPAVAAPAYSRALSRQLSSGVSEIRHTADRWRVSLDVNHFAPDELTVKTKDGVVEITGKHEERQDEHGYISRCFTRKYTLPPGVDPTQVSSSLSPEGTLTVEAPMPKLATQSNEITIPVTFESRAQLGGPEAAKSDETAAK

Consider `O=c1cc(-c2ccccc2)oc2cc(OCC3CS3)cc(O)c12` (configuration not stated), for which the result in test [1] was Active.

For `O=c1cc(-c2ccccc2)oc2cc(OCC3CS3)cc(OCC3CS3)c12` (configuration not stated), the result (in [2]; in [3]; in [1]; in the test with NCI-H460 [4]; in the test on NCI-H460 [5]; in the test with NCI-H460 [6]) was Active. The outcome (in [7]; in test [8]; in the test with NCI-H460 [15]) was Active. The Activity stood at 11.71% with NCI-H460 [9]; 27.48% in the test on NCI-H460 [10]; 9.85% in the test with NCI-H460 [11]; 31.53% in the test on NCI-H460 [12]; 10.78% in the test with NCI-H460 [13]; 10.12% in the test on NCI-H460 [14].

`COc1cc(OCC2CS2)c2c(=O)c3ccccc3oc2c1` (configuration not stated): the outcome (in test [1]; in test [7]; in test [8]; in the test on NCI-H460 [15]) was inactive. Moreover, the Activity in the test with NCI-H460 [9] was 0.6%; with NCI-H460 [10], 4.04%; with NCI-H460 [11], 3.42%; in the test with NCI-H460 [12], 6.65%; with NCI-H460 [13] it was 6.62%; in the test with NCI-H460 [14] it was 0.68%. For the same compound, the Activity in the test on NCI-H460 [16] is given as 4.27%; in the test with NCI-H460 [17] it was 3.41%; in the test on NCI-H460 [18] it was 3.6%; in the test on NCI-H460 [19], 4.81%; with NCI-H460 [20], 7.29%; in the test on NCI-H460 [21], 2.45%.

Take `O=c1cc(-c2ccccc2)oc2cc(OCC3CO3)cc(OCC3CO3)c12` (configuration not stated): in [1], the outcome was Active.

Regarding `Cc1cc(=O)c2c(OCC3CS3)cc(OCC3CS3)cc2o1` (configuration not stated), the result (in [2]; in test [3]; in test [1]; with NCI-H460 [4]; in the test on NCI-H460 [5]; in test [22]) was Active. Also, the result in test [7], in [8], in [24], in test [25] and in [26] was Active. For the same compound, the Activity was 2.37% with NCI-H460 [9]; 4.5% in the test with NCI-H460 [10]; 3.49% in the test on NCI-H460 [11]; 13% in [23]; 3.53% in the test on NCI-H460 [16]; 6.25% in the test with NCI-H460 [17]. Moreover, the Activity was determined as 2.67% in the test with NCI-H460 [18]; 6.44% in [27]; 11.1% in test [28]; 2.91% in test [29]; 18% in test [30]; 5.37% in test [31]. In the test on NCI-H460 [15], the result was inactive.

With `O=c1cc(-c2ccccc2)oc2cc(OCC3CO3)cc(O)c12` (configuration not stated), the result in test [1] was inactive.

`Cc1cc(=O)c2c(O)cc(OCC3CS3)cc2o1` (configuration not stated): the result (in [2]; in test [3]; in [1]; in the test with NCI-H460 [4]; with NCI-H460 [5]; in test [22]) was Active. In addition, the outcome in test [7], in test [8], in [24], in test [25] and in test [26] was Active. Further, the Activity with NCI-H460 [9] came to 1.97%; in the test with NCI-H460 [10], 5.9%; in the test on NCI-H460 [11], 3.47%; in test [23], 16.5%; with NCI-H460 [16] it was 5.21%; in the test on NCI-H460 [17], 4.73%. For the same compound, the Activity with NCI-H460 [18] came to 1.89%; in [27] it was 4.52%; in test [28] it was 9.47%; in test [29], 2.11%; in test [30], 18.6%; in test [31], 3.87%. Further, in the test with NCI-H460 [15], the outcome was inactive.

Consider `O=c1c2ccccc2oc2cc(OCC3CS3)cc(OCC3CS3)c12` (configuration not stated), for which the outcome (in test [2]; in [3]; in [1]; in the test on NCI-H460 [4]; with NCI-H460 [5]; with NCI-H460 [6]) was Active. Also, the outcome (in [7]; in [8]; in the test on NCI-H460 [15]) was Active. The Activity was found to be 3.38% in the test with NCI-H460 [9]; 8.13% in the test with NCI-H460 [10]; 8.67% in the test with NCI-H460 [11]; 20.69% in the test on NCI-H460 [12]; 21.99% in the test on NCI-H460 [13]; 5.18% in the test with NCI-H460 [14].
